The source of these data is US10624884B2, “H4 agonist molecule for the treatment of idiopathic pulmonary fibrosis” (H4 ORPHAN PHARMA, priority 2016, dated 2020).

Series [1] concerns bleomycin mouse model of idiopathic pulmonary fibrosis (BL6 mice). As to the kind of experiment: Bleomycin mouse model: lung histology, semi-quantitative fibrosis score (Ashcroft score). It is filed as in vivo, mice (C57/B16J. As to the method:
(§1) The bleomycin mouse protocol (BLM) was conducted with all of the mice of each group of 10 mice (species: C57/B16J, referred to further on as BL6); these are female mice 8 weeks old.
The analyse of the Fibrosis was conducted with all the animals of each group, respectively. The extent of the fibrosis was analysed biochemically, histologically and cytologically using various quantitative and semi quantitative methods.
All of the mice BL6 are treated according to the protocol hereinbelow. • 5 groups of mice were evaluated.
The treatment with bleomycin (BLM) is done according to the following protocol:
(§2) All of the mice of all of the groups (except group 1) receive bleomycin (BLM) intranasally (3 mg/kg via intranasal instillation) for 5 consecutive days and will be monitored daily and killed at D+29 after BLM instillation in order to study the chronic pulmonary inflammation and the fibrosis. The bleomycin being administered five times at the age of 8 weeks (see diagram 3A).
(§3) The treatment with tritoqualine is done in 2 doses, 20 and 40 mg/kg/day throughout the entire life of the mice. The treatment with tritoqualine starts fourteen days after the first inhalation of the treatment with bleomycin. The treatment is done orally. The groups studied were as follows:
After bronchoalveolar lavage (BAL) and perfusion of the lung, the large lobe was fixed in 4% buffered formaldehyde for standard microscopic analysis (Leica microscope). […] sections were coloured with Masson's trichrome (TM) by using standard techniques, which allow for the evaluation of the fibrosis (TM) as the fibres of collagen are coloured blue and the observation of the extent of the inflammation.
The fibrosis was evaluated by a semi-quantitative score (0-5) (Ashcroft score) with the increase in severity by two independent observers.
The fibrosis with the deposit of collagen located at the alveolar walls and in the peribronchial area and the infiltration of inflammatory cells were evaluated using a semi-quantitative score of 0-5 with an increasing severity by two independent observers.

Series [2] relates to collagen. As to the kind of experiment: Bleomycin mouse model: titration of collagen (hydroxyproline) in lung homogenate. It is filed as in vivo, mice (C57/B16J, BL6). Conditions: for Collagen (hydroxyproline), mean±standard deviation: BLM mice, n=10, bleomycin group 340.0±4.888. The procedure:
as §1, §2, §3
The collagen content is done after homogenisation of the lung. After bronchoalveolar lavage (BAL), the entire lung was perfused with a saline solution through the right ventricle of the heart in order to empty the vascular content.
The lungs were frozen at −70° C. until they were used. The lung was then homogenised in PBS and centrifuged.
The supernatant was discarded and the lower portion was put back into suspension in 1 ml of PBS containing 0.5% hexadecyltrimethylammonium bromide (HTAB) and 5 mM ethylene-diamine-tetra-acetic acid (EDTA).
After centrifugation, the collagen content was determined by the Sircol assay (France Biochem Division, France), as described by the manufacturer.
The titration of the collagen (method by the dosage of hydroxyproline) is expressed in μg/mg of proteins.

Series [3] deals with TGFβ. As to the kind of experiment: Bleomycin mouse model: measurement of cytokines (TGFβ) in lung homogenate, Luminex assay. Conditions: BLM mice; P=0.001 for both substances; FIG. 1A. In kind it is in vivo, mice (C57/B16J, BL6). As to the method: as §1, §2, §3
The interferon gamma and TGFβ levels were measured in a lung homogenate; the concentrations of these different cytokines were determined by a Luminex assay using a MAGPIX (Biorad, France) according to the manufacturer's instructions.

Series [4] has as its system CFU rich in H4 receptor. As to the kind of experiment: Proliferation of CFU rich in H4 receptor (FIG. 5). It is filed as cell-based. Conditions: for Activity on CFU proliferation when an anti H4 is used: with an anti H4.
The target of series [5] is T1, histidine decarboxylase (Homo sapiens, UniProt P19113).
T1 sequence (P19113 1-662): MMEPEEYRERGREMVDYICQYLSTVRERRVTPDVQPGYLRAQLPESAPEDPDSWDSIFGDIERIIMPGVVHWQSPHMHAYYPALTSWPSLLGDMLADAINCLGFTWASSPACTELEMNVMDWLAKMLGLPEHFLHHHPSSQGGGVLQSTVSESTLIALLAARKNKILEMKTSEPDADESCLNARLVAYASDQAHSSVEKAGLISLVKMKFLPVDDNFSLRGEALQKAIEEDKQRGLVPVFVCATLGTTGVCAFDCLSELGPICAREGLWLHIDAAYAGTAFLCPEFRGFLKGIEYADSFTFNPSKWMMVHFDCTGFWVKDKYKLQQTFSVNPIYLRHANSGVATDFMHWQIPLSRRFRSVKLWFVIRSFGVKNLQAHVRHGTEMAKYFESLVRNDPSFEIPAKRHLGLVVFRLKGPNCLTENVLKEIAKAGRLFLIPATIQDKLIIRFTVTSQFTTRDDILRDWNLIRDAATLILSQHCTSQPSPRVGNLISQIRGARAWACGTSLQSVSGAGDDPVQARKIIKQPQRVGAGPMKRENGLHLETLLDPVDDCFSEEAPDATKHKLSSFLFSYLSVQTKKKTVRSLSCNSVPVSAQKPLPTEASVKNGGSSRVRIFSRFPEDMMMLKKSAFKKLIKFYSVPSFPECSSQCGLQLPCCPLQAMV
The settings on record: background statement; cited from earlier work.

The target in series [6] is histamine H4 receptor (Homo sapiens, UniProt Q9H3N8). Conditions: shown in US 2010144718A; cited from earlier work.
The conditions of series [7]: commercial white powder; degrades in Cotarnine and phthalic acid; cited from earlier work.
The subject of series [8] is idiopathic pulmonary fibrosis. Conditions: 1,800 mg/d for one year, in addition to corticoids and azathioprine, cited from earlier work.
The mark [9] stands for this setting: pirfenidone 100 mg/kg po versus bleomycin.

Molecules are shown by their SMILES.

Sequence of histamine H4 receptor (Q9H3N8 whole entry, species assumed): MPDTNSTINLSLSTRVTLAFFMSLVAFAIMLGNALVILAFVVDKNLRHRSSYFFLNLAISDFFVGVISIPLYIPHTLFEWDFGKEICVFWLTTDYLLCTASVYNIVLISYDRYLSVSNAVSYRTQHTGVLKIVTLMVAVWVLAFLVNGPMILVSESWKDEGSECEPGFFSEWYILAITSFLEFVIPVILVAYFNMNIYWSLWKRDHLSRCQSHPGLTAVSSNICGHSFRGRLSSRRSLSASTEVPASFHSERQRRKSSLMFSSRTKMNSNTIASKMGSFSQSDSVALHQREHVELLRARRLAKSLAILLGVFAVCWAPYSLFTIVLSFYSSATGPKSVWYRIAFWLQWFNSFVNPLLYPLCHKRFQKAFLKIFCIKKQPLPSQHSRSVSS

Consider `Cc1ccc(=O)n(-c2ccccc2)c1` [Pirfenidone, pirfenidone], for which the “Histological semi-quantitative score (0-5) (Ashcroft score), mean±standard deviation” value in series [1] (BLM mice, pirfenidone 100 mg/kg po, n=10, bleomycin group 4.2±0.14, P 0.0449) came to 3.8±0.12. In series [1] (setting [9]), the “Histological score, difference between the two means (treated versus bleomycin)” value was −0.40±0.18. Further, in series [2] (pirfenidone 100 mg/kg po, P 0.0450), the “Collagen (hydroxyproline), mean±standard deviation” value was 316.5±9.748 μg/mg of proteins. Besides, the “Collagen (hydroxyproline), difference between the two means (treated versus bleomycin)” value in series [2] (setting [9]) is −23.50±10.90 μg/mg of proteins. Further, the “Effect on TGFβ in lung homogenate” value in series [3] is “strongly inhibits”.

`NC(=NCc1ccc(Cl)cc1)SCCCc1cnc[nH]1` [Clobenpropit]: the “Activity on CFU proliferation when an anti H4 is used” value in series [4] was “substantially diminished”.

As to `CCOc1c(N)c2c(c(OCC)c1OCC)C(C1c3c(cc4c(c3OC)OCO4)CCN1C)OC2=O` (centres unmarked) [Tritoqualine, 7-Amino-4,5,6-triethoxy-3-(5,6,7,8-tetrahydo-4-methoxy-6-methyl-1,3-dioxolo[4,5-g]isoquinolin-5-yl) phthalide], the “Efficacy on histology versus bleomycin (conclusion)” value in series [1] (tritoqualine 20 mg/kg po, D14 to D28, P<0.0002) is “very high efficacy”. Besides, the “Effect on the histological score” value in series [1] (tritoqualine at the dose of 20 or 40 mg/kg, po) is “substantially decreases the histological score”. Moreover, the “Collagen (hydroxyproline), mean±standard deviation” value in series [2] (tritoqualine 20 mg/kg po, P<0.0001) is on record as 280.0±7.528 μg/mg of proteins. Besides, in series [2] (tritoqualine 20 mg/kg po versus bleomycin), the “Collagen (hydroxyproline), difference between the two means (treated versus bleomycin)” value is −60.00±8.975 μg/mg of proteins. In series [3], the “Effect on TGFβ in lung homogenate” value is on record as “strongly inhibits”. Moreover, in series [4], the “Effect on the proliferation of CFU rich in H4 receptor” value is “able to inhibit the proliferation of CFU” and the “Activity on CFU proliferation when an anti H4 is used” value is reported as “substantially diminished”. Also, the “Inhibiting activity on histidine decarboxylase” value in series [5] is “very low”. The “Action on the histamine H4 receptor” value in series [6] is “very substantial action”. Besides, in series [7], the Stability to light entry is recorded as “highly sensitive to light”.

As for `CC(=O)N[C@@H](CS)C(=O)O` [N-acetylcysteine], the “Average decrease in the decline of the forced vital capacity” value in series [8] ((0.03-0.32)) is 0.18 L. For the same compound, in series [8], the “Decrease in the decline of the diffusion of CO” value was 24%, the “Mortality between the two groups” value was “no difference in mortality” and the “Relative difference in the decline of the forced vital capacity” value is given as 9%.
